Data as given in publication PMC4627800, “Allelic Variation of Cytochrome P450s Drives Resistance to Bednet Insecticides in a Major Malaria Vector” (PLoS Genetics, 2015).
Marks after values point to notes of the source that are not given here.

Experiments:
FANGCYP6P9a = FANGCYP6P9a (Anopheles funestus, UniProt K7Z0P3)
Procedure: (§1) Reactions were performed in triplicates both for +NADPH (experimental tubes) and–NADPH (negative control). K m and V max were established from the plot of substrate concentrations against the initial velocities and fitting of the data to the Michaelis-Menten module using the least squares non-linear regression, as described in the GraphPad Prism 6.03 Software (GraphPad Inc., La Jolla, CA, USA).

FANGCYP6P9b = FANGCYP6P9b (Anopheles funestus, UniProt A0A0S1RZ61)
Procedure: as §1

Asn^384Ser_CYP6P9b = Asn^384Ser_CYP6P9b (Anopheles funestus, UniProt B5AII7, N384S); test: Kinetics of permethrin metabolism by CYP6P9b mutants; format: biochemical
Procedure: as §1
(§2) In addition, fluorescent probes were also screened to establish differences in the O-dealkylation activity of the mutants compared with the wild type enzyme. All in vitro and kinetic analyses were conducted as described above. However, as different mutants expressed with varying concentrations all assays were conducted within linear range, with the amount of enzyme and time which produced highest activities.

Val^109Ile_CYP6P9b = Val^109Ile_CYP6P9b (Anopheles funestus, UniProt B5AII7, V109I); test: as above; format: biochemical
Procedure: as §1, §2

Asp^335Glu_CYP6P9b = Asp^335Glu_CYP6P9b (Anopheles funestus, UniProt B5AII7, D335E); test: as above; format: biochemical
Procedure: as §1, §2

Pro^401Ala_CYP6P9b = Pro^401Ala_CYP6P9b (Anopheles funestus, UniProt B5AII7, P401A); test: as above; format: biochemical
Procedure: as §1, §2

## CC1(C)C(C=C(Cl)Cl)C1C(=O)OCc1cccc(Oc2ccccc2)c1 (stereo not shown) [permethrin]
FANGCYP6P9a
  Kcat: 4.95 ± 1.92 min⁻¹
FANGCYP6P9b
  Kcat: 4.5 ± 1.35 min⁻¹
  Km: 20.5 ± 8.31 µM
Asn^384Ser_CYP6P9b
  Km: 17.9 ± 0.87 µM
  Km of mutant, fold of Asp^335Glu mutant: 4 fold
  Km of mutant, fold of wrMALCYP6P9b: 2 fold
Asn^384Ser_CYP6P9b; Asn^384Ser_CYP6P9b, mean ± S.E.M.
  Kcat: 0.87±0.08*** min^-1
Asn^384Ser_CYP6P9b; wrMALCYP6P9b vs Asn^384Ser
  Kcat of wrMALCYP6P9b, fold of mutant: 9 fold
  catalytic efficiency of wrMALCYP6P9b, fold of mutant: 20 fold
Val^109Ile_CYP6P9b
  Km: 20.5 ± 1.35 µM
  Km of mutant, fold of Asp^335Glu mutant: 4 fold
  Km of mutant, fold of wrMALCYP6P9b: 2 fold
Val^109Ile_CYP6P9b; Val^109Ile_CYP6P9b, mean ± S.E.M.
  Kcat: 1.35±0.57** min^-1
Val^109Ile_CYP6P9b; wrMALCYP6P9b vs Val^109Ile
  Kcat of wrMALCYP6P9b, fold of mutant: 6 fold
  catalytic efficiency of wrMALCYP6P9b, fold of mutant: 13 fold
Asp^335Glu_CYP6P9b
  Km: 5.19 ± 1.89 µM
Asp^335Glu_CYP6P9b; Asp^335Glu_CYP6P9b, mean ± S.E.M.
  Kcat: 0.98±0.12*** min^-1
Asp^335Glu_CYP6P9b; wrMALCYP6P9b vs Asp^335Glu
  Kcat of wrMALCYP6P9b, fold of mutant: 8 fold
  catalytic efficiency of wrMALCYP6P9b, fold of mutant: 4 fold
Pro^401Ala_CYP6P9b
  Km: 15.4 ± 6.5 µM
Pro^401Ala_CYP6P9b; Pro^401Ala_CYP6P9b, mean ± S.E.M.
  Kcat: 4.21±0.96* min^-1
Pro^401Ala_CYP6P9b; wrMALCYP6P9b vs Pro^401Ala
  catalytic efficiency of wrMALCYP6P9b, fold of mutant: 3 fold
